Experimental data taken from article PMC12149313 (Cell Death & Disease, 2025).

Test system: T1, β-tubulin
T1 construct: gene TUBB
Assay: ITDR-CETSA of β-tubulin at […] °C in CFPAC-1 COMT-/- cells
Type: cell-based

SMILES: CNc1nc2ccccc2n2c(-c3ccc(OC)c(O)c3)cnc12 [EAPB04303]
- EC50: 3000 ± 2000 nM
